Assay results as given in patent US20220402900A1, “1,2,4-OXADIAZOL-5-ONE DERIVATIVES FOR THE TREATMENT OF CANCER” (Basilea Pharmaceutica International AG, priority 2019, published 2022).

Columns and labels:
[1] = target: T1, human TEAD2 (amino acids 217-447) (Homo sapiens, UniProt Q15562); assay: Thermal shift assay (TSA); assay type: binding; conditions: 3 μM recombinant TEAD2, compound 7 μM, shift vs DMSO control
T1 construct: human TEAD2 (amino acids 217-447); His-tag (N); purchased Proteros biostructures PR-0365; host or cells: E. coli
T1 sequence (Q15562 217-447): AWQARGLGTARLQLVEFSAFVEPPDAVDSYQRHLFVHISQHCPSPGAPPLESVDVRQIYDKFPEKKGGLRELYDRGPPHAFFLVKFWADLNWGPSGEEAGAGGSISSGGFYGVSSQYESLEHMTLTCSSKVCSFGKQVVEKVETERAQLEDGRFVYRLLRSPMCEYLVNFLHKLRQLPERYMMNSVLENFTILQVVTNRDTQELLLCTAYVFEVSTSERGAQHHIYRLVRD
Protocol: The thermal shift assay (TSA) was utilized to characterize target engagement in vitro based on ligand-dependent thermal stabilization of the protein. N-terminally His-tagged human TEAD2 (amino acids 217-447) expressed and purified from E. coli was purchased from Proteros biostructures (cat no. PR-0365). The melting reactions were performed in white, 96 well qPCR plates (Roche Diagnostics, cat. no. 04 729 692 001) in 20 mM HEPES pH 7, 100 mM NaCl in the presence of 4×SYPRO orange (Sigma, cat. no. S5692). Each well contained 3 μM recombinant TEAD2 and either DMSO (control) or experimental compounds at a final concentration of 7 μM. The total volume was 20 μL and the final DMSO concentration was 1%. The plate was sealed and analyzed in a LightCycler 480 II (Roche Diagnostics) by continuously reading the fluorescence using the 465-580 nm filter set while heating from 25° C. to 95° C. using a linear gradient of 1° C./min. Melting temperatures were determined by numerical differentiation using the LightCycler Thermal Shift Analysis software (Roche Diagnostics). The shifts in melting temperature caused by experimental compounds compared to the control are expressed as ΔTm (Table 2).

[2] = tested on: TEAD reporter gene activity; assay: TEAD reporter gene assay (MCF7 TEAD reporter cell line); assay type: cell-based; conditions: Homo sapiens; TEAD luciferase reporter in MCF7 cells, 24 hours; read-out: IC50 TEAD RGA (converted)
Excerpt: A TEAD reporter cell line was purchased from BPS Bioscience (cat. no. 60618). It contains the firefly luciferase gene under control of TEAD responsive elements stably integrated into the human breast cancer MCF7 cells. In proliferating cells, a basal level of unphosphorylated YAP/TAZ resides in the nucleus and drives the TEAD-dependent expression of the luciferase reporter. The cells were cultivated as recommended by the supplier. Inhibition of TEAD reporter gene activity by experimental compounds was measured using white, clear-bottom, 96 well cell culture plates (Greiner Bio-One, cat. no. 655098). The cells were seeded at a density of 20,000 cells per well in 100 μL growth medium and the plates were incubated overnight at 37° C. with 5% CO2 prior to treatment. Experimental compounds were serially diluted in DMSO to 200× the desired final concentrations. 0.5 μL aliquots of DMSO or the test samples were then mixed into the wells and the cells were further incubated for 24 hours. Luminescence was then measured on a Synergy 4 reader (BioTek) using the ONE-Glo Luciferase Assay System (Promega, cat. no. E6120) according to the manufacturer's instructions. Relative inhibition values were calculated by normalizing the raw data using DMSO-treated cells (0% inhibition) and wells devoid of cells (100% inhibition). IC50 values were calculated by fitting concentration-response data to a sigmoidal 4-parameter logistic model.

NCI-H226 xenografts = assay: NCI-H226 tumor xenograft efficacy study; assay type: in vivo; conditions: day 62, NCI-H226 xenografts in BALB/c nude mice
Protocol: Female BALB/c nude mice (GemPharmatech Co., Ltd) were subcutaneously inoculated with 10×10^6 NCI-H226 tumor cells (ATCC, CRL-5826) in 0.2 mL of PBS mixed with matrigel (1:1) (Corning). Randomization into six groups (n=8 animals per group) was performed when the mean tumor size reached approximately 150 (100-200) mm^3, after which drug treatments were started. Animals were dosed daily orally at the specified concentrations using an oral-gavage needle. The dosing volume was 10 mL/kg per mouse, with a volume adjusted to the mouse body weight. The vehicle control (water containing 0.5% hydroxypropyl methyl cellulose (Sigma-Aldrich, #H3785) and 0.5% Tween 80 (Sigma-Aldrich, #P1754) was administered in the same way. Tumor volumes were measured twice weekly in two dimensions using a caliper, and the volume was expressed in mm^3 using the formula “V=(L×W^2)/2”, where V is the tumor volume, L is the tumor length (the longest tumor dimension) and W is the tumor width (the longest tumor dimension perpendicular to L).
Animal protocols were reviewed and approved by the Institutional Animal Care and Use Committee (IACUC) at CrownBio. During the study, the care and use of animals was conducted in accordance with the regulations of the Association for Assessment and Accreditation of Laboratory Animal Care (AAALAC).

[3] = tested on: TEAD-dependent PD marker CTGF; assay: MSTO-211H tumor xenograft pharmacodynamic (PD) study; assay type: in vivo, mice
Protocol: Female CB. 17 SCID mice (Charles River) were subcutaneously inoculated with 5×10^6 MSTO-211H tumor cells (ATCC, CRL-2081) in 0.1 mL of PBS mixed with matrigel (1:1) (BD Biosciences). Randomization into two groups was performed when the mean tumor size reached approximately 300-400 mm^3, after which drug treatments were started.
Animals were dosed daily orally at the specified concentrations of the compound of Example 2 or the compound of Example 11 using an oral-gavage needle. The dosing volume was 10 mL/kg per mouse, with a volume adjusted to the mouse body weight. The vehicle control (water containing 0.5% hydroxypropyl methyl cellulose (Sigma-Aldrich, #H9262) and 0.5% Tween 80 (Sigma-Aldrich, #P1754)) was administered in the same way.
PD marker analysis was performed on tumors that were collected from animals 3 hours after the last dose was given. […] The tumor protein lysates were prepared and analyzed using standard Western blot procedures. […] For quantitative PCR (qPCR) analyses, RNA was converted into cDNA following manufacturer's instructions (SuperScript™ III First-Strand Synthesis for RT-PCR, Invitrogen, #18080-051). […] The increase in fluorescence was analyzed with the instrument-specific software (Roche, LightCycler® 480 II), and a mean quantity was calculated from duplicate or triplicate PCRs for each sample using the ΔΔCt method.

With `O=c1[nH]c(-c2nccnc2Nc2ccc(C(F)(F)F)cc2)no1` [Example 2, 3-[3-[4-(trifluoromethyl)anilino]pyrazin-2-yl]-4H-1,2,4-oxadiazol-5-one] the ΔTm at 7 µM [1] was 10.6 °C, the IC50 [2] was 41 nM and the “final ΔT/C” value (NCI-H226 xenografts; 50 mg/kg po qd) was 0.27. For the same molecule, the “final ΔT/C” value (NCI-H226 xenografts; 125 mg/kg po qd) was 0.13, the “final ΔT/C” value (NCI-H226 xenografts; 250 mg/kg po qd) was 0.017 and the “decrease of CTGF mRNA to (normalized to actin mRNA)” value ([3]; 250 mg/kg po qd×8, MSTO-211H tumors isolated 3 hours after last dose) was 28%.

With `COc1ccnc(Nc2ccc(C(F)(F)F)cc2)c1-c1noc(=O)[nH]1` [Example 11, 3-[4-methoxy-2-[4-(trifluoromethyl)anilino]-3-pyridyl]-4H-1,2,4-oxadiazol-5-one] the ΔTm at 7 µM [1] was 6.7 °C, the IC50 [2] was 39 nM and the “decrease of CTGF mRNA to (normalized to actin mRNA)” value ([3]; 250 mg/kg po qd×5, MSTO-211H tumors isolated 3 hours after last dose) was 32%.

With `O=c1[nH]c(-c2nccnc2Nc2ccc(C3CC3)cc2)no1` [Example 39, 3-[3-(4-cyclopropylanilino)pyrazin-2-yl]-4H-1,2,4-oxadiazol-5-one] the ΔTm at 7 µM [1] was 9.3 °C and the IC50 [2] was 2820 nM.

Work on `COCCOc1ccnc(Nc2ccc(C(F)(F)F)cc2)c1-c1noc(=O)[nH]1` [Example 62, 3-[4-(2-methoxyethoxy)-2-[4-(trifluoromethyl)anilino]-3-pyridyl]-4H-1,2,4-oxadiazol-5-one] yielded a ΔTm at 7 µM [1] of 5.5 °C and an IC50 [2] of 61 nM.

Molecule `O=c1[nH]c(-c2cc(C(F)(F)F)cnc2Nc2ccc(C(F)(F)F)cc2)no1` [Example 10, 3-[5-(trifluoromethyl)-2-[4-(trifluoromethyl)anilino]-3-pyridyl]-4H-1,2,4-oxadiazol-5-one] has a ΔTm at 7 µM [1] of 10.1 °C and an IC50 [2] of 374 nM.
